Common to all, as to format: cell-based
Assay [1] relates to human prostate cancer cells (22rv1). Kind of assay: Cell death in prostate cancer spheroids, PrestoBlue. The settings on record: techniques of Example 1. On the procedure: (§1) The respective cells were individually cultured in a growth medium prepared using RPMI-1640 medium containing 11.1 mM D-glucose with 10% fetal bovine serum, 10 mM HEPES, 2 mM L-glutamine, 1 mM sodium pyruvate, 0.05 mM 2-mercaptoethanol, and Antibiotic-Antimycotic. These cells were maintained in T75 tissue culture flasks in a humidified incubator at 37° C. and 5% CO2. The media were changed on a third day after cell plating, and the cells were passaged on day 5 by trypsinization.
(§2) Custom-made micromolds with 100 um diameter wells were loaded with the cells (U.S. Pat. No. 8,735,154, incorporated by reference herein). The media were changed every day by partial replacement. Cell aggregates were allowed to form in the micromolds for 72 hours and then were transferred to a 100 mm non-treated tissue culture dishes for 3 additional days. The spheroids were passed through 70 um and 100 μm cell strainers (#3431751 and #43152, Corning, Tewksbury, Mass.) and maintained in HEPES Balanced Salt Solution comprised of: 20 mM HEPES, 114 mM NaCl, 4.7 mM KCl, 1.2 mM KH2PO4, 1.16 mM MgSO4, 2.5 mM CaCl2, 25.5 mM NaHCO3 and 0.2% bovine serum albumin (fatty acid free), pH 7.2.
(§3) The cells were treated and tested as set forth in Example 1.

Assay [2] deals with human ovarian cancer cells (A1847). Briefly: Cell death in ovarian cancer spheroids, PrestoBlue. As to conditions: techniques of Example 1. The protocol: as §1, §2, §3
For assay [3], the system named is human lung cancer cells (H358). Briefly: Cell death in lung cancer spheroids, PrestoBlue. As to conditions: techniques of Example 1. On the procedure:
as §1, §2
The lymphomas treatment methods used were identical to those described in Example 2 relative to the pediatric leukemia cells, whereas the lung cancer treatment method was the same as described in Example 1.

The next assay relates to ovarian cancer cells. Kind of assay: Synergism with doxorubicin on ovarian cancer spheroids. The settings on record: low doses, up to 0.158 μM. On the procedure: In this test, the synergism of GZ17-6.02 with doxorubicin (a common chemotherapy drug) was tested on ovarian cancer cells. In this test, increasing doses of doxorubicin were administered to ovarian cancer spheroids and cell deaths were measured, as described in Example 1. The protocol involved testing doxorubicin alone at various dosages (FIG. 8, doxorubicin alone—closed circles), with comparative tests using the various dosages of doxorubicin in combination with either 0.2 mg/mL (FIG. 8 open circles) or 0.4 mg/mL (FIG. 8 closed triangles) GZ17-6.02. Additionally, the induced cell death results from use of 0.2 mg/mL GZ17-6.02 alone (FIG. 8, line A) and 0.4 mg/mL GZ17-6.02 alone (FIG. 8, line B) were determined.

The structures appear in SMILES notation.

As to `COc1cccc(C=O)c1O` [O-vanillin], the “anticancer effects (cell number versus increasing concentrations), compound alone” value in assay [1], in assay [2] and in assay [3] was “demonstrated anticancer effects” throughout.
As to `COc1cccc2c1C(=O)c1c(O)c3c(c(O)c1C2=O)C[C@@](O)(C(=O)CO)C[C@@H]3O[C@H]1C[C@H](N)[C@H](O)[C@H](C)O1` [doxorubicin], the “cell death, doxorubicin alone” value in the assay on ovarian cancer cells is listed as “ineffective”.
Consider `COc1ccc2c3c([nH]c2c1)C(C)=NCC3` [harmaline], for which the “anticancer effects (cell number versus increasing concentrations), compound alone” value in assay [1], in assay [2] and in assay [3] was “demonstrated anticancer effects” each time.
As to `CC1=NCCc2c1[nH]c1cc(O)ccc21.Cl` [harmalol hydrochloride], the “anticancer effects (cell number versus increasing concentrations), compound alone” value in assay [1], in assay [2] and in assay [3] was “demonstrated anticancer effects” each time.
For `Cc1nccc2c1[nH]c1cc(O)ccc12.Cl` [harmole hydrochloride], the “anticancer effects (cell number versus increasing concentrations), compound alone” value in assay [1], in assay [2] and in assay [3] was “demonstrated anticancer effects” in each case.
Turning to `COc1ccc(C(=O)O)cc1O` [isovanillic acid], the “anticancer effects (cell number versus increasing concentrations), compound alone” value in assay [1], in assay [2] and in assay [3] was “demonstrated anticancer effects” each time.
Consider `COc1ccc(CO)cc1O` [isovanillyl alcohol], for which the “anticancer effects (cell number versus increasing concentrations), compound alone” value in assay [1], in assay [2] and in assay [3] was “demonstrated anticancer effects” in each case.
With `COc1ccc2c3c([nH]c2c1)[C@@H](C)NCC3` [tetrahydro-harmine], the “anticancer effects (cell number versus increasing concentrations), compound alone” value in assay [1], in assay [2] and in assay [3] was “demonstrated anticancer effects” throughout.
As for `COc1cc(C=O)ccc1O` [vanillin], the “anticancer effects (cell number versus increasing concentrations), compound alone” value in assay [1], in assay [2] and in assay [3] was “demonstrated anticancer effects” in each case.

The values above are taken from patent publication US20160106687A1, “HUMAN THERAPEUTIC AGENTS” (Life Plus, LLC, priority 2014, published 2016).
